The values below come from ChEMBL document CHEMBL4619724, “Environment-sensitive fluorescent inhibitors of histone deacetylase” (Bioorg Med Chem Lett, 2020).

The structures appear in SMILES notation. Some results are limits rather than exact numbers.

By IC50 is commonly meant the concentration needed to halve the response being measured.

In data set [1] the target is Histone deacetylase. Put plainly: Inhibition of HDAC in human HeLa cell extracts assessed as inhibition of substrate deacetylation using Boc-Lys (acetyl)-AMC as substrate by fluorescence based assay.
The subject of data set [2] is MOLT-4. Put plainly: Induction of apoptosis in human MOLT4 cells assessed as increase in apoptotic cells at 5 uM incubated for 24 hrs by Annexin V and PE staining based flow cytometric analysis relative to control. The class given is functional. (In general: In flow cytometry, cells or beads pass a laser one at a time.)
Data set [3] concerns K562. Put plainly: Antiproliferative activity against human K562 cells incubated for 24 hrs by CCK8 assay. The class given is functional, cell-based. To be noted: K562, 24 h. For orientation: Tetrazolium dyes change colour on reduction, which living cells bring about.
Data set [4] has as its system A549. Put plainly: Antiproliferative activity against human A549 cells incubated for 24 hrs by CCK8 assay. The class given is functional, cell-based. To be noted: A549, 24 h.
In data set [5] the test system is PC-3. In words: Antiproliferative activity against human PC3 cells incubated for 24 hrs by CCK8 assay. The class given is functional, cell-based. To be noted: PC-3, 24 h.
The subject of data set [6] is MOLT-4. In words: Antiproliferative activity against human MOLT4 cells incubated for 24 hrs by CCK8 assay. The class given is functional, cell-based. To be noted: MOLT-4, 24 h.
Data set [7] can be described thus: Drug uptake in nude mouse thigh muscles assessed as increase in fluorescence intensity in tissue at 10 uM by fluorescence upright microscopic method. The class given is ADME, tissue-based, Thigh muscle. To be noted: in vivo.
Data set [8] in a line: Drug uptake in cytoplasm in human PC3 cells overexpressing HDAC at 5 uM incubated for 30 mins by fluorescence microscopic method. The following applies: pc-3, 0.5 h. The class given is ADME, subcellular.
The nature of data set [9]: Drug uptake in tumor tissue of nude mouse xenografted with human PC3 cells assessed as increase in fluorescence intensity at 10 uM by fluorescence upright microscopic method. The class given is ADME, tissue-based, Neoplasm, PC-3. To be noted: in vivo. Background: Xenograft models place foreign cells or tissue in a host animal.
Data set [10] in a line: Drug uptake in nucleus in human MOLT4 cells at 5 uM incubated for 30 mins by Hoechst 33342 staining based confocal microscopic method. The class given is ADME, subcellular. The following applies: molt-4, 0.5 h.
Data set [11] in a line: Drug uptake in cytoplasm in HEK293 cells harboring low HDAC expression at 5 uM incubated for 30 mins by fluorescence microscopic method. The class given is ADME, subcellular. To be noted: human, hek293, 0.5 h.
Data set [12] in a line: Drug uptake in nude mouse skin assessed as increase in fluorescence intensity in tissue at 10 uM by fluorescence upright microscopic method. The class given is ADME, tissue-based, Zone of skin. To be noted: in vivo.
Data set [13] in a line: Drug uptake in cytoplasm in human MOLT4 cells overexpressing HDAC at 5 uM incubated for 30 mins by fluorescence microscopic method. The class given is ADME, subcellular. To be noted: molt-4, 0.5 h.
Data set [14] in a line: Drug uptake in human MOLT4 cell membrane at 5 uM incubated for 30 mins by DID staining based confocal microscopic method. The class given is ADME. To be noted: molt-4, 0.5 h.
A short description of data set [15]: Drug uptake in tumor tissue of nude mouse xenografted with human PC3 cells assessed as increase in fluorescence intensity in tumor tissue at 10 uM in presence of HDAC inhibitor, SAHA by fluorescence upright microscopic method. The class given is ADME, tissue-based, Neoplasm, PC-3. To be noted: in vivo.

On to `CC(C)CC(NC(=O)NCCCCCNc1ccc(S(=O)(=O)N(C)C)c2nonc12)C(=O)NO` (configuration not stated), for which the 50% inhibitory concentration (IC50) in data set [1] was > 100 µM.
For `CN(C)S(=O)(=O)c1ccc(NCCCCCC(=O)NO)c2nonc12`, in [2], the Activity stood at 23.3%. For the same molecule, the IC50 in data set [3] was 15.2 µM; in data set [4] it was > 100 µM; in data set [5], 31.2 µM; in data set [6], 3.55 µM.
As for `CN(C)S(=O)(=O)c1ccc(NCCCCCNC(=O)NCC(=O)NO)c2nonc12`, the IC50 in [1] is 7.58 µM.
Turning to `CN(C)S(=O)(=O)c1ccc(NCCCCCCC(=O)NO)c2nonc12`, the Drug uptake entry is listed as “Not Active” in data set [7]; “Active” in data set [8]; “Active” in data set [9]; “Not Active” in data set [10]; “Not Active” in data set [11]; “Not Active” in data set [12]. The Drug uptake entry in [13] is reported as “Active”; in [14], 62.1%; in data set [15], “Not Active”. The Activity in data set [2] worked out at 20.02%. For the same molecule, the IC50 in data set [3] is 11 µM; in data set [4], > 100 µM; in [5] it was 52.6 µM; in [6], 7.84 µM.
`O=C(CCCCCCC(=O)Nc1ccccc1)NO` [VORINOSTAT]: in data set [2], the Activity is 29.58%.
